Results published in patent publication US8765054B2, “Process for treatment of residual nucleic acids present on the surface of laboratory consumables” (EMD Millipore Corporation, priority 2010, dated 2014).

Key:
[1] = tested on: Germs (E. coli, P. aeruginosa); experiment: Residual DNA contained in microorganisms (germs) on tubes after treatment, determined by PCR; format: cell-based
Experimental: (§1) Several consumables consisting of 1.5 ml polypropylene tubes were contaminated in parallel with a known quantity of DNA, RNA or microorganisms. These consumables were then gamma-sterilized (doses from 0 to 60 kGy) or treated with ethylene oxide in gaseous phase. After sterilization, the presence of residual nucleic acids is determined by PCR (for DNA) and TMA (for RNA) and compared with an unsterilized control consumable.
(§2) Several consumables of the same type as those used in protocol 1 were contaminated with the same known quantity of DNA, RNA or microorganisms. These consumables were then treated by a treatment with hydrogen peroxide made in liquid solution (respectively 3% and 30% H2O2). The hydrogen peroxide is evaporated at the end of the process by virtue of a step of drying under vacuum at a temperature of 60° C. After treatment, the presence of residual nucleic acids was determined by PCR (for DNA) and TMA (for RNA) and compared with an untreated sample.
(§3) Several consumables of the same type as those used in protocol 1 were contaminated with the same known quantity of DNA, RNA or microorganisms. A proportion of those consumables was then treated according to the invention with gaseous ethylene oxide followed by the 3% or 30% hydrogen peroxide. A further proportion was treated with gamma radiation instead of with the gaseous ethylene oxide then with hydrogen peroxide. In both cases, the hydrogen peroxide was evaporated by virtue of a vacuum drying step at a temperature of 60° C. After treatment, the presence of residual nucleic acids was determined by PCR (for DNA) and TMA (for RNA) and compared with an untreated sample.

[2] = tested on: Germs (P. acnes, P. aeruginosa); experiment: Residual RNA contained in microorganisms (germs) on tubes after treatment, determined by TMA; format: cell-based
Experimental: as §1, §2, §3

[3] = tested on: RNA (P. acnes, P. aeruginosa); experiment: Residual free RNA on 1.5 ml polypropylene tubes after treatment, determined by TMA; parameters: key to the marks not given beside the values
Experimental: as §1, §2

[4] = tested on: DNA (E. coli, P. aeruginosa); experiment: Residual free DNA on 1.5 ml polypropylene tubes after treatment, determined by PCR
Experimental: as §1, §2

[5] = Protocol 2, liquid H2O2, minimum time of action 40 min at 60° C.

Compound	Effectiveness of the residual nucleic acid treatment, Germs (PCR) [1, 5]	Effectiveness of the residual nucleic acid treatment, Germs (TMA) [2, 5]	Effectiveness of the residual nucleic acid treatment, RNA (TMA) [3, 5]	Effectiveness of the residual nucleic acid treatment, DNA (PCR) [4, 5]	Effectiveness of the residual nucleic acid treatment, Germs (PCR) ([1]; Protocol 1, DNA in microorganisms, E. coli, P. aeruginosa)	Effectiveness of the residual nucleic acid treatment, Germs (TMA) ([2]; Protocol 1, RNA in microorganisms, P. acnes, P. aeruginosa)	Effectiveness of the residual nucleic acid treatment, RNA (TMA) ([3]; Protocol 1, free RNA, P. acnes, P. aeruginosa, vs unsterilized control)	Effectiveness of the residual nucleic acid treatment, DNA (PCR) ([4]; Protocol 1, free DNA, E. coli, P. aeruginosa, vs unsterilized control)
OO [H2O2 3%, hydrogen peroxide]	−	−	++	++				
C1CO1 [EO, ethylene oxide]					+	−	+++	+
OO [H2O2 30%, hydrogen peroxide]	−	−	+++	+++				
